# Test results reported in PMC8698759, “Gold(I) Complexes Bearing Alkylated 1,3,5-Triaza-7-phosphaadamantane Ligands as Thermoresponsive Anticancer Agents in Human Colon Cells” (Biomedicines, 2021).
# Like-named read-outs stand apart in the source and are kept apart here.
# What was measured:
# Human fibroblast cells = assay: MTT cytotoxicity assay on fibroblasts; format: cell-based; conditions: for fibroblasts viability when treated at the IC50 value in Caco-2: 3a 2.5 µM, 3b 5.1 µM, 2a 12.3 µM, 2b 10.5 µM; for Selectivity Index (SI): IC50 fibroblasts/IC50 Caco-2; for IC50: MTT, mean ± SE
# Experimental: (§1) Human Caco-2 cell line (TC7 clone) was kindly provided by Dr. Edith Brot-Laroche (Université Pierre et Marie Curie-Paris 6, UMR S 872, Les Cordeliers, France). Human fibroblast cells were kindly provided by Dr. Julio Montoya (Unidad de Bioquímica, Facultad de Veterinaria, Universidad de Zaragoza, Spain). Caco-2 cells (passages 40–70) and fibroblasts (passages 10–30) were maintained in a humidified atmosphere of 5% CO2 at 37 °C. Cells were grown in Dulbecco’s Modified Eagles medium (DMEM) (Gibco Invitrogen, Paisley, UK) supplemented with 20% fetal bovine serum (FBS), 1% non-essential amino acids, 1% penicillin (1000 U/mL), 1% streptomycin (1000 μg/mL) and 1% amphotericin (250 U/mL). The cells were passaged enzymatically with 0.25% trypsin-1 mM EDTA. Caco-2 cells were sub-cultured on 25 cm^2 plastic flasks at a density of 1.2 × 10^4 cells/cm^2, while fibroblasts were sub-cultured on 75 cm^2 plastic flasks at a density of 1 × 10^4 cells/cm^2. Culture medium was replaced every 2 days.
# (§2) Gold complex was diluted in dimethyl sulfoxide (DMSO) to a stock solution at 20 mM and then re-diluted to a working solution at 2.5 mM before diluting it in cell culture medium to treat cells at desired concentrations.
# (§3) For cytotoxicity screening assays, Caco-2 cells were seeded in 96-well plates at a density of 4 × 10^3 cells/well. Culture medium was replaced with medium containing drug panel 24 h post-seeding and cells were incubated for 72 h. In fibroblasts, culture medium containing metal gold complexes was added 10 days post-seeding. Antiproliferative effect was measured with MTT assay as previously described by Mármol et al.. Absorbance at 540/620 nm was measured with SPECTROstar Nano (BMG Labtech). To determine the selectivity index (SI) the IC50 value in fibroblasts was divided by IC50 value in Caco-2, obtaining a ratio cancerous/normal cells toxicity.
# Caco-2/TC7 cells = assay: MTT cytotoxicity / antiproliferative assay on Caco-2/TC7 cells; format: cell-based, human
# Experimental: as §1, with “Human” for “Human Caco-2 cell line (TC7 clone) was kindly provided by Dr. Edith Brot-Laroche (Université Pierre et Marie Curie-Paris 6, UMR S 872, Les Cordeliers, France). Human”, “The cells were passaged enzymatically with 0.25% trypsin-1 mM EDTA.” left out
# as §2
# The influence of hyperthermia was studied by incubating cells at 40 °C for 1 h immediately after treating them with the gold complexes.
# as §3, with “Absorbance at 540/620 nm was measured with SPECTROstar Nano (BMG Labtech).” left out
# [1] = 37 °C values rounded, read-out: IC50 values in Caco-2
# [2] = 72 h, MTT, 37 °C, mean ± SE, read-out: IC50 Caco-2/TC7 37 °C
# [3] = read-out: IC50 Caco-2/TC7 40 °C, 72 h, MTT, 1 h at 40 °C immediately after treatment (hyperthermia), mean ± SE
Structure (SMILES),fibroblasts viability when treated at the IC50 value in Caco-2 (Human fibroblast cells),Selectivity Index (SI) (Human fibroblast cells),IC50 (Human fibroblast cells) [µM],IC50 (Caco-2/TC7 cells; [1]) [µM],IC50 (Caco-2/TC7 cells; [2]) [µM],IC50 (Caco-2/TC7 cells; [3]) [µM]
"FC(F)(F)C(F)(F)C(F)(F)C(F)(F)C(F)(F)C(F)(F)CC[N+]12CN3CN(C1)C[P+]([Au-][S]c1ccccn1)(C3)C2.O=S(=O)([O-])C(F)(F)F [Complex 3b, [Au(C5H5NS)(PTA-CH2CH2(CF2)5CF3)](TfO)]",did not compromise fibroblasts viability,2.51,12.8 ± 1.48,5.1,5.11 ± 1.25,4.26 ± 0.34
"CCCCCCCC[N+]12CN3CN(C1)C[P+]([Au-][S]c1ccccn1)(C3)C2.[I-] [Complex 3a, [Au(C5H5NS)(PTA-CH2(CH2)6CH3)]I]",did not compromise fibroblasts viability,4.86,12.11 ± 0.11,2.5,2.49 ± 0.31,2.05 ± 0.32
